Measurements: patent publication US20240197729A1, “ALK-5 Inhibitors and Uses Thereof” (Sumitomo Pharma Oncology, Inc., priority 2021, published 2024)

Experiments:
[1] = test system: athymic nude mice; conditions: mouse, in vivo; for therapeutic index: female, athymic nude (NCRNU), 5 days; for MTD / tolerability, acute MTD study: po
Experimental: . Evaluation of the acute and chronic maximum tolerated dose (MTD) for Compound 04 and Compound 01 was carried out by oral gavage administration of each compound to athymic nude mice according to the following procedure.
Five weeks-old female athymic nude mice (NCRNU) were purchased from Taconic Biosciences, Rensselaer NY, and acclimated for one week. Mice were approximately […] when enrolled in the study. All compounds were resuspended in 1-methyl-2-pyrrolidinone (Sigma, 494496) (10% v/v) plus 20% Solutol (Sigma 42966) in water (90% v/v). Mice were randomized according to the baseline weight (Day 1) at the beginning of the acute and chronic MTD studies.
For the acute MTD study, mice were administered three escalating doses of each compound every other day (two animals per group). Mice were dosed by oral gavage with one hundred milligrams per kilogram on day one, five hundred milligrams per kilogram on day three, and one thousand milligrams per kilogram on day five. Body weight was measured every day, and the percent body weight change was calculated.
For the chronic MTD study, three groups, with three mice per group were dosed daily for five consecutive days, at one hundred, three hundred, or one thousand milligrams per kilogram of Compound 04 or Compound 01, and observed for five consecutive days post-dosing during recovery. Body weight was measured, and clinical observations were recorded daily for ten consecutive days. A vehicle only treatment group of three mice was included to evaluate potential toxicity of the vehicle. The percent body weight change for each day was calculated based on Day 1 measurements.

[2] = test system: A549 lung fibroblasts; assay: Epithelial to mesenchymal transition gene expression in A549; assay type: cell-based; conditions: 5 ng/ml TGF-beta1, 48 h, up to 5 micromolar
Experimental: To evaluate whether Compounds 01 and 04 could inhibit epithelial to mesenchymal transition (EMT), an in vitro model using A549 lung fibroblasts was utilized. A549 cells were purchased from ATCC (CCL-185), and grown in RPMI media supplemented with 10 percent fetal bovine serum (FBS). On the day of the experiment, ten thousand A549 cells were seeded in eighty microliters total volume into a flat, tissue culture coated, ninety-six-well plate. Drugs, including positive control compounds vactosertib, PF-06952229 and LY3200882, were added in an eight point, one to three dilution series with the highest concentration of each drug being five micromolar, bringing the total volume of each well to ninety microliters. DMSO, which served to dissolve the 10 millimolar stock solution of each drug, was normalized across all wells After one hour of drug pretreatment, recombinant human TGF-beta1 was added to a final concentration of five nanograms per milliliter, bringing the volume to one hundred microliters. Recombinant human TGF-beta 1 was purchased from R&D Systems (7754-BH-005) and its stock solution was prepared according to manufacturer's instructions and diluted in RPMI media supplemented with 10% FBS. The ninety-six well plate with one hundred microliter volume was incubated at 37° C. at 5% CO2 for forty-eight hours. At the end of the incubation period, gene expression levels of various EMT markers were assessed using a custom designed QuantiGene Plex Gene Expression Assay. The genes chosen were CDH1 (E-cadherin), CDH2 (N-Cadherin), SNAI1 (Snail), SNAI2 (Slug), VIM (Vimentin), SPARC, GALNT6, CTNNB1 (beta-catenin), TGFB1, and MAML3.
Briefly, cell lysate was prepared using the QuantiGene Sample Processing Kit —Cultured Cells (QS0100) in the ninety-six well plate. Cell lysates were then subjected to bead hybridization, multiple probe hybridization steps and SAPE labeling following manufacturer's instruction. The plate was read on a Luminex MAGPIX instrument.

[3] = test system: bleomycin-induced lung fibrosis; assay: Bleomycin-induced lung fibrosis study; assay type: in vivo, mice; conditions: for formation of fibrosis, Masson's trichrome stained lung tissue: 25 or 50 mg/kg BID, responding animals; for Ashcroft score, group comparison to the bleomycin/vehicle group: all doses, five animals per group
Experimental: The most common animal model of pulmonary fibrosis is the bleomycin-induced lung fibrosis model in rodents. This model is commonly used to investigate biology and potential therapies for fibrotic diseases affecting the lung, such as idiopathic pulmonary fibrosis (IPF). Bleomycin, a cytotoxic drug, is administered to mice or rats and causes direct cell injury triggered by DNA strand breaks, which leads to an overproduction of reactive oxygen species causing inflammation, pulmonary toxicity, activation of fibroblasts and subsequent fibrosis. Fibrosis is hallmarked by aberrant activation of lung epithelial cells and accumulation of fibroblasts and myofibroblasts with excessive production of extracellular matrix such as collagen. To test the ability of Compound 01 and Compound 04 to reduce fibrosis in vivo, a bleomycin induced lung fibrosis model in mice was utilized and endpoints such as lung hydroxyproline levels, a surrogate marker of collagen and fibrosis, and histological scoring of fibrosis were performed.
For this study, male C57BL/6J mice approximately 6 to 7 weeks old (purchased from Charles River) were weighed on the day prior to study day 0 to establish a baseline. All study arms contained sixteen total animals, except the sham/vehicle group, which contained 10 animals. All animals, except the sham/vehicle group were dosed intranasally with 4 international units per kilogram bleomycin in the morning of day 1 of the study. Bleomycin was prepared in a solution of 0.9 percent sodium chloride. All drugs were prepared in 10 percent Tween 20. Starting in the evening on day 1 of the study, one dose of Compound 04 or Compound 01 was given at either twenty-five or fifty milligrams per kilogram per oral gavage. For all subsequent days of the twenty-one day study, animals were dosed twice a day per oral gavage with either twenty-five or fifty milligram per kilogram of Compound 04 or Compound 01. At day twenty-one, the lungs were harvested and either snap frozen or fixed in paraformaldehyde. The left lobe of the lungs was subjected to hydroxyproline quantification, which was used as a biomarker of fibrosis and total collagen. The remaining lung tissue was fixed in paraformaldehyde to be processed for histological examination following hematoxylin-eosin (H&E) and Masson trichrome staining. […]. Clinical observations were recorded daily.

Compound	therapeutic index [1]	MTD [1]	tolerability, acute MTD study [1]	CDH1 (E-Cadherin) gene expression [2]	expression of the nine genes induced with EMT (CDH2, SNAI1, SNAI2, VIM, SPARC, GALNT6, CTNNB1, TGFB1, MAML3) [2]	formation of fibrosis, Masson's trichrome stained lung tissue [3]	Ashcroft score, group comparison to the bleomycin/vehicle group [3]
Clc1cccc2c(Nc3ccnc(Nc4cccc(N5CCOCC5)c4)c3)cnnc12 [Compound 04, N4-(8-chlorocinnolin-4-yl)-N2-[3-(morpholin-4-yl)phenyl]pyridine-2,4-diamine]	6 ×	three hundred	well tolerated in mice at one thousand milligrams per kilogram with single dose administration	inhibition of downregulation of CDH1 (E-Cadherin)	inhibition of induction of the nine genes that are induced with EMT	reduced the formation of fibrosis	not statistically significant
Cc1nn(CC(F)(F)F)cc1Nc1cc(Nc2cnnc3c(C)cccc23)ccn1 [Compound 01, N2-[3-methyl-1-(2,2,2-trifluoroethyl)-1H-pyrazol-4-yl]-N4-(8-methylcinnolin-4-yl)pyridine-2,4-diamine]	less than 4 ×	less than three hundred	well tolerated in mice at one thousand milligrams per kilogram with single dose administration	inhibition of downregulation of CDH1 (E-Cadherin)	inhibition of induction of the nine genes that are induced with EMT	reduced the formation of fibrosis	not statistically significant
